Experimental data: PubChem BioAssay (NCI)
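48-hour exposure; five concentrations; linearly interpolated endpoints. GI50 is the concentration that inhibits growth by half. The concentration for full growth arrest is given as TGI.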

Legend:
Assay in all cases: DTP human tumour cell line panel, 48 h
CCRF-CEM leukemia = system: CCRF-CEM leukemia
MDA-MB-231 breast = system: MDA-MB-231 breast
HCC-2998 colon = system: HCC-2998 colon
HCT-116 colon = system: HCT-116 colon
KM12 colon = system: KM12 colon
NCI-H226 lung = system: NCI-H226 lung
UACC-62 melanoma = system: UACC-62 melanoma
SNB-75 CNS = system: SNB-75 CNS
786-0 renal = system: 786-0 renal
UACC-257 melanoma = system: UACC-257 melanoma

Row | Compound | TGI (CCRF-CEM leukemia) [µM] | TGI (MDA-MB-231 breast) [µM] | TGI (HCC-2998 colon) [µM] | TGI (HCT-116 colon) [µM] | TGI (KM12 colon) [µM] | TGI (NCI-H226 lung) [µM] | TGI (UACC-62 melanoma) [µM] | TGI (SNB-75 CNS) [µM] | TGI (786-0 renal) [µM] | TGI (UACC-257 melanoma) [µM] | GI50 (CCRF-CEM leukemia) [µM] | GI50 (MDA-MB-231 breast) [µM] | GI50 (HCC-2998 colon) [µM] | GI50 (HCT-116 colon) [µM] | GI50 (KM12 colon) [µM] | GI50 (NCI-H226 lung) [µM] | GI50 (UACC-62 melanoma) [µM] | GI50 (SNB-75 CNS) [µM] | GI50 (786-0 renal) [µM] | GI50 (UACC-257 melanoma) [µM]
1 | CN1CCc2ccccc2C1Cc1ccccc1NC(=O)c1sc2ccccc2c1Cl (stereo not given) | > 100 | > 100 | > 100 | > 100 | > 100 | > 100 | > 100 | > 100 | > 100 | > 100 | – | – | – | – | – | – | – | – | – | –
2 | CCNCC(=O)Nc1ccc2c(c1)C(=O)c1ccc(NC(=O)CNCC)cc1C2=O | > 100 | 9.88 | 3.75 | 7.52 | > 100 | 20 | 17.8 | 7.44 | 7.92 | 18.6 | – | – | – | – | – | – | – | – | – | –
3 | COc1cc2c(/C=C3\C(=O)N(C)c4ccccc43)c[nH]c2cc1C | 18.8 | > 100 | > 68.3 | > 41.7 | > 100 | > 58.1 | > 100 | > 100 | > 59.6 | > 100 | 0.957 | 2.05 | 1.79 | 0.369 | 0.735 | 20.3 | 1.29 | 4.34 | 4.43 | 23.5
4 | O=S(O)O.O=S(O)O.[Co].[NH2-].[NH2-].[NH2-].[NH2-] | – | > 100 | – | > 100 | > 100 | > 100 | > 100 | > 100 | > 100 | > 100 | – | > 100 | – | > 100 | > 100 | > 100 | > 100 | > 100 | > 100 | > 100
5 | NC(=O)c1cn(C2CC(O)C(CO)O2)c2ncnc(N)c12 (stereo not given) | > 100 | 21.2 | 5.62 | > 100 | 28.4 | 17.4 | 23 | 9.47 | 18.9 | > 63.4 | 0.0888 | 3.26 | 1.47 | 4.1 | 5.18 | 3.19 | 2.39 | 1.52 | 4.15 | 11
6 | CCCCCCCCCCCCCCCCn1cc[n+](C)c1 | 0.512 | 2.23 | 1.13 | 1.22 | 0.756 | – | 1.88 | – | 1.91 | – | 0.139 | 0.814 | 0.277 | 0.267 | 0.264 | – | 0.538 | – | 0.5 | –
7 | O=c1[nH]c(-c2ccc(Cl)c(Cl)c2)cn1-c1ccc(Cl)cc1 | > 100 | 46 | 87.9 | 34 | > 100 | 54.1 | 78.3 | 37.5 | 43.9 | > 100 | 40.3 | 15.2 | 25.2 | 15.8 | 71.3 | 22.9 | 26.2 | 18.6 | 20.7 | > 100
8 | O=C1OC2(c3ccc(O)cc3Oc3cc(O)ccc32)c2cccc3cccc1c23 | > 100 | 40.3 | > 100 | > 100 | 57.8 | 52.1 | 42.5 | 43.4 | 81.3 | 67.2 | 26.5 | 14.3 | 48.4 | 22.4 | 23.2 | 16.1 | 17.3 | 12.3 | 27 | 23.6
9 | CCOC(=O)Cc1csc(NC(=O)C(OC(=O)c2ccc(Cl)cc2)c2ccccc2)n1 (stereo not given) | – | > 100 | > 100 | > 100 | > 100 | > 100 | 46.5 | 95.1 | > 100 | > 100 | – | 31.7 | 50.9 | 29 | 38.9 | 54.4 | 20.3 | 26.1 | 42.8 | 41.3
10 | Cc1cc(-c2nc3sc(C)cn3c2/C=N/N=C(N)N)c(C)s1 | 5.06 | 16.3 | 3.24 | 3.37 | 9.62 | 40.8 | 30.5 | – | 21.1 | 44.2 | 2.49 | 3.49 | 1.73 | 1.79 | 2.68 | 20.8 | 16.5 | – | 8.68 | 22.2
11 | COc1cc2c3c(n(CCCN=[N+]=[N-])c(=O)c2cc1OC)-c1ccc([N+](=O)[O-])cc1C3=O | > 100 | > 100 | – | > 100 | > 100 | – | > 100 | 66.9 | > 100 | > 100 | 38.7 | 20.3 | – | > 100 | > 100 | – | 68.7 | 20.9 | 50.3 | > 100
12 | CCN1/C(=C/C(C)=C/c2sc3ccc4ccccc4c3[n+]2CC)Sc2ccc3ccccc3c21 | – | 1.04 | – | 0.293 | 0.276 | 1.27 | 1.8 | 0.761 | 1.09 | 0.0916 | – | 0.271 | – | 0.127 | 0.136 | 0.225 | 0.31 | 0.205 | 0.268 | 0.0115
13 | O=Cc1ccc(-c2ccc(-c3nc4ccccc4s3)cc2)o1 | – | 68.1 | > 100 | > 100 | > 100 | > 100 | > 100 | > 100 | > 100 | > 100 | – | 22 | > 100 | > 100 | 46.5 | 5.03 | > 100 | > 100 | > 100 | > 100
14 | COc1ccc2c(n1)Sc1nc3ccccc3nc1N2 | > 100 | 49.7 | – | > 100 | > 100 | 34 | 43.4 | > 100 | > 100 | > 100 | – | – | – | – | – | – | – | – | – | –
